Patent US11499978B2, “Method for measuring quality of therapeutic cell through real-time glutathione measurement” (CELL2IN, INC., priority 2017, dated 2022)

Key:
human dermal fibroblasts = assay: mGSH level in human dermal fibroblasts after RSL3; format: cell-based; conditions: as the subculture continued; confocal imaging
Method: As described in the experiment for MSCs, human dermal fibroblasts subcultured several times were treated with RSL3 and the cells were stained with MitoFreSH-Tracer, and a ratio between cells maintaining mGSH and cells not maintaining mGSH was represented as a percentage through confocal imaging.

hUC-MSCs [1] = assay: mGSH distribution in hUC-MSCs after RSL3 (MitoFreSH, flow cytometry and confocal imaging); format: cell-based, human
Method: After the cultured human umbilical cord-derived mesenchymal stem cells (hUC-MSCs) at passage 4, 7 or 15 were treated with various concentrations of RSL3 and stained with MitoFreSH, the distribution pattern of mitochondrial GSH (mGSH) in the cells was confirmed by histograms using flow cytometry and confocal imaging.
hUC-MSCs at passage 4, 7 or 15 were prepared, seeded at 70000 cells/well in a 6-well cell culture plate, and cultured at 37° C. for 24 hours. The medium used in the culture was prepared by adding 10% fetal bovine serum and 1× penicillin-streptomycin to α-MEM. […] The cells detached from the plate were transferred to an FACS tube and stored on ice, and a fluorescence level was measured using a flow cytometer.
hUC-MSCs at passage 4, 7 or 15 were prepared, seeded at 7000 cells/100 μl per well in a 96-well cell culture plate, and cultured at 37° C. for 24 hours. […] To remove MitoFreSH-Tracer from the medium before measurement, the medium was exchanged with fresh 10 mM HEPES-containing HBSS, and fluorescence images were measured using a confocal imaging system, Operetta.
A F510/F580 ratio referring to a GSH mean value in cells was calculated by measuring fluorescence values of F510 (fluorescence value when MitoFreSH-Tracer was bound with SH) and F580 (fluorescence value of MitoFreSH-Tracer, which was not bound with SH) in cells and dividing the F510 value by the F580 value. […]

hUC-MSCs [2] = assay: CD146 surface expression in mGSH High and mGSH Low hUC-MSCs after RSL3; format: cell-based, human; conditions: P4 hUC-MSC group in which mGSH level is lowered by RSL3, compared with mGSH level-maintaining group
Excerpt: To confirm whether the stem cell function of cells in which an mGSH level decreased is deteriorated under lipid oxidative stress caused by RSL3 treatment, an expression level of CD146, which is a cell surface protein known to be highly expressed in stem cells of high quality according to conventional literature, was confirmed through flow cytometry.
The cells were stained by the same method as a method of measuring a mitochondria GSH level through the flow cytometry described above, and detached from the plate using trypsin. The detached cells were treated with an antibody for flow cytometry with respect to CD146 to which a fluorescent material BUV395 was bound at 4° C. for 30 minutes, and washed with PBS. Using a flow cytometer, F510 and F580 fluorescence values for measuring a GSH level and a BUV395 fluorescence value for measuring CD146 expression were measured. Afterward, based on the point at which the histogram showing the F510/F580 distribution was divided into two peaks, the cells were divided into GSH^High cells (right peak) and GSH^Low cells (left peak) using FlowJo software, and a CD146-positive ratio of the corresponding cells is represented as a percentage (%).

hUC-MSCs [3] = assay: CFU-F assay of hUC-MSCs; format: cell-based, human; conditions: ferrostatin-1 0.2, 1, 2 and 4 μM, liproxstatin-1 0.1, 0.5, 1 and 2 μM, 24 hours, n=3
Method: The inventors observed an effect of the material on stem cells by treating each stem cells with a material for enhancing a glutathione evaluation parameter. When hUC-MSCs were subcultured in a L-AA2G-containing medium, CFU-F, migration capacity, and an anti-inflammatory effect were observed. A CFU-F assay (n=3) was performed by treating hUC-MSCs with 125 or 250 μg/mL of AA2G for three days. As shown in FIGS. 16A and 16B, it was confirmed that, when AA2G was treated, CFU-F increased. In addition, as hUC-MSCs were treated with 125 or 250 μg/mL of AA2G for three days, PDGF-AA-induced migration capacity (n=3) was analyzed. As shown in FIGS. 17A and 17B, it was confirmed that the migration capacity was increased by AA2G treatment. In addition, the reduction in T cell proliferation, the reduction in T cell differentiation, and the promotion of Treg cell differentiation were observed by treating hUC-MSCs with 125 or 250 μg/mL of AA2G for three days. […] Meanwhile, hUC-MSCs were cultured with a glutathione precursor such as γ-glutamyl cysteine (GGC, 0.1, 0.25, and 0.5 mM). A CFU-F assay (n=3) was performed by treating hUC-MSCs with each concentration of GGC for 2 hours. […] In addition, SDF1α and PDGF-AA-induced migration capacities (n=3) were analyzed for hUC-MSCs without treatment with GGC, and SDF1α and PDGF-AA-induced migration abilities (n=3) were analyzed by treating hUC-MSCs with the increasing concentrations of GGC. STI571 was used as a PDGFR kinase inhibitor. As shown in FIGS. 20A to 20C, it was confirmed that, according to an increase in GGC treatment concentration, SDF1α- and PDGF-AA-induced migration capacities were enhanced. A CFU-F assay (n=3) was performed by treating hUC-MSCs with 0.2, 1, 2, and 4 μM ferrostatin-1 and 0.1, 0.5, 1, and 2 μM liproxstatin-1 for 24 hours.

T cells = assay: Anti-inflammatory effect of treated hUC-MSCs on T cells; format: cell-based
Method: The inventors observed an effect of the material on stem cells by treating each stem cells with a material for enhancing a glutathione evaluation parameter. When hUC-MSCs were subcultured in a L-AA2G-containing medium, CFU-F, migration capacity, and an anti-inflammatory effect were observed. A CFU-F assay (n=3) was performed by treating hUC-MSCs with 125 or 250 μg/mL of AA2G for three days. As shown in FIGS. 16A and 16B, it was confirmed that, when AA2G was treated, CFU-F increased. In addition, as hUC-MSCs were treated with 125 or 250 μg/mL of AA2G for three days, PDGF-AA-induced migration capacity (n=3) was analyzed. As shown in FIGS. 17A and 17B, it was confirmed that the migration capacity was increased by AA2G treatment. In addition, the reduction in T cell proliferation, the reduction in T cell differentiation, and the promotion of Treg cell differentiation were observed by treating hUC-MSCs with 125 or 250 μg/mL of AA2G for three days.
In addition, hUC-MSCs were cultured with ferrostatin-1 (0.2, 1, 2 and 4 μM) and liproxstatin-1 (0.1, 0.5, 1 and 2 μM), which control a glutathione level in cells by inhibiting lipid oxidation. […] Meanwhile, the hUC-MSCs were treated with 1 μM ferrostatin-1 for 24 hours, 0.2 mM GGC for 2 hours, and 2 mM GSH-EE for 2 hours. As a result, the reduction in T cell proliferation ability and the reduction in T cell differentiation capacity were observed, and promotion of Treg cell differentiation was observed.

[4] = hUC-MSCs treated with 1 μM ferrostatin-1 24 h, 0.2 mM GGC 2 h, 2 mM GSH-EE 2 h

| Structure (SMILES) | proportion of cells in which mGSH decreases by treatment with RSL3 (human dermal fibroblasts) | mGSH levels (hUC-MSCs [1]; hUC-MSCs at passage 4, 7 or 15, RSL3 0.1/0.5/1 μM, depending on RSL3 concentration and passage number) | lowering of CD146-positive ratio (hUC-MSCs [2]) | CFU-F (hUC-MSCs [3]) | anti-inflammatory effect of the hUC-MSCs (T cells; ferrostatin-1 1 μM 24 h, GGC 0.2 mM 2 h, FIGS. 27, 28A to 28C) | T cell differentiation capacity (T cells; [4]) | T cell proliferation ability (T cells; [4]) | Treg cell differentiation (T cells; [4]) | effect of RSL3 on mGSH upon Ferrostatin-1 treatment (hUC-MSCs [1]; hUC-MSCs treated with RSL3) |
| --- | --- | --- | --- | --- | --- | --- | --- | --- | --- |
| COC(=O)c1ccc([C@@H]2c3[nH]c4ccccc4c3C[C@@H](C(=O)OC)N2C(=O)CCl)cc1 [RSL3, 1S,3R-RAS-selective lethal 3] | increased | reduced | approximately 25% |  |  |  |  |  |  |
| CCOC(=O)c1ccc(NC2CCCCC2)c(N)c1 [ferrostatin-1] |  |  |  | improved | did not alter | reduction | reduction | promotion | disappeared |
